This assay has as its target GABA-A receptor. Kind of assay: 35S-TBPS binding assay (GABAA receptor binding ability test). Further details: species or system Sprague-Dawley rat. As to conditions: rat cerebral cortex cell membrane, 5 μM GABA, 2 nM 35S-TBPS; read-out: 35S-TBPS bindng test: IC50 on inhibiting the TBPS binding activity. As to the method: 1.2 Experimental Procedures 1.2.1 Extraction of Cerebral Cortex Cell Membrane:
1. The cerebral cortex of male Sprague-Dawley rat was isolated.
2. A pre-chilled 0.32 M sucrose solution (one tablet of protease inhibitor was added per 100 ml) was added to the cerebral cortex (the volume of sucrose solution was 10 times the volume of the cerebral cortex). The mixture was crushed with a 50 mL glass tissue homogenizer in batches and mixed well.
3. The mixture was centrifuged at 1500 g, 4° C. for 10 minutes, and the supernatant was collected.
4. The mixture was centrifuged at 20000 g, 4° C. for 30 minutes, and the supernatant was discarded.
5. The precipitate was resuspended with the pre-chilled phosphate buffer saline (PBS) (one tablet of protease inhibitor was added per 100 ml). An average of 4 ml of PBS was added per rat, and the mixture was mixed well by a glass tissue homogenizer.
6. The mixture was centrifuged at 10000 g, 4° C. for 10 minutes, and the supernatant was discarded.
7. Steps 5 and 6 were repeated three times.
8. Finally, the precipitate was resuspended with 4 volumes of PBS. The resulting solution was dispensed, frozen in liquid nitrogen, and stored at −80° C.
9. The protein concentration was measured by the bicinchoninic acid (BCA) method.
1.2.2 ^35S-TBPS Binding Assay
1. 230 μL of PBS was added to each well of a well plate with 1.1 ml volume.
2. 60 μL of the cerebral cortex cell membrane (5 μg/μL) solution was added to each well, and the mixture was mixed well.
3. The test compound (3 μL per well) was added, and the plate was incubated at 25° C. for 5 minutes. The DMSO concentration was 1%. The initial compound concentration was 1 μM, and a 3-fold dilution in gradient was carried out to obtain a total of 8 gradients and 2 replicates. 1% DMSO was used as a negative control, and 10 μM P026-2 was used as a positive control.
4. GABA was added at a final concentration of 5 μM, and incubated at 25° C. for 5 minutes. 1 mM GABA solution was formulated, and 1.5 μL of the solution was added to each well.
5. ^35S-TBPS was added at a final concentration of 2 nM. The concentration of isotope mother solution was 9.7 μM. After dilution with PBS for 100 times, 6 μL of the diluted isotope solution was added to each well.
6. The plate was incubated at 4° C. for 20 hours.
7. The FilterMate GF/C plate was pre-treated with 0.5% PEI, and incubated at 4° C. for 1 hour.
8. The FilterMate GF/C plate was washed with Universal Harvester twice, 50 ml PBS each time.
9. The reaction solution was transferred to the GF/C plate, and each well was washed 4 times with 900 μL of PBS.
10. The washed GF/C plate was placed at 55° C. and dried for 10 minutes.
11. 40 μL of scintillation solution was added to each well, and the CPM value was read with TopCount.
1.2.3 Experimental Data Processing Method:
In the experiment, the CPM (counts per minute) value was read with TopCount. According to the readings of the High control (DMSO) and the Low control ([…] of the positive compound) experimental groups, the […] inhibition was calculated based on the following formula: % Inhibition=100×(CPMHigh control−CPMSample)/(CPMHigh control−CPMLow control)
The IC50 of the compound was calculated according to the following 4-parameter nonlinear logic formula: Y=Bottom+(Top−Bottom)/(1+10^((Log IC50−X)*Hill Slope)),
wherein: • X represents the log of compound concentration, • Y represents the 0 Inhibition.
The effect of the compound of the present invention on the TBPS binding activity was determined by the above test, and the measured IC50 values are shown in Table 1.

Regarding `Cc1nnn(CC(=O)[C@H]2C[C@@H](C)[C@H]3[C@@H]4CC[C@@H]5C[C@](C)(O)CC[C@@H]5[C@H]4CC[C@@]32C)n1` [Example 62, 1-((3R,5R,8R,9R,10S,13S,14S,15R,17S)-3-Hydroxy-3,13,15-trimethylhexadecahydro-1H-cyclopenta[a]phenanthren-17-yl)-2-(5-methyl-2H-tetrazol-2-yl)ethan-1-one], the half-inhibitory concentration (IC50) (commonly the point on the concentration scale where inhibition reaches its midpoint) is 5.4 nM.
Consider `C[C@@H]1C[C@H](C(=O)COc2ccc(F)cc2F)[C@@]2(C)CC[C@H]3[C@@H](CC[C@@H]4C[C@](C)(O)CC[C@@H]43)[C@H]12` [Example 64, 2-(2,4-Difluorophenoxy)-1-((3R,5R,8R,9R,10S,13S,14S,15R,17S)-3-hydroxy-3,13,15-trimethylhexadecahydro-1H-cyclopenta[a]phenanthren-17-yl)ethan-1-one], for which the half-inhibitory concentration (IC50) was 8.6 nM.
Consider `C[C@@H]1C[C@H](C(=O)Cn2cc(C#N)c(C3CC3)n2)[C@@]2(C)CC[C@H]3[C@@H](CC[C@@H]4C[C@](C)(O)CC[C@@H]43)[C@H]12` [Example 69, 3-Cyclopropyl-1-(2-((3R,5R,8R,9R,10S,13S,14S,15R,17S)-3-hydroxy-3,13,15-trimethylhexadecahydro-1H-cyclopenta[a]phenanthren-17-yl)-2-oxoethyl)-1H-pyrazole-4-carbo nitrile], for which the IC50 turned out to be 7.6 nM.
Take `C[C@@H]1C[C@H](C(=O)Cn2cc(Cl)cn2)[C@@]2(C)CC[C@H]3[C@@H](CC[C@@H]4C[C@](C)(O)CC[C@@H]43)[C@H]12` [Example 91, 2-(4-Chloro-1H-pyrazol-1-yl)-1-((3R,5R,8R,9R,10S,13S,14S,15R,17S)-3-hydroxy-3,13,15-trimethylhexadecahydro-1H-cyclopenta[a]phenanthren-17-yl)ethan-1-one]: the IC50 was 9.6 nM.
As to `C[C@@]1(O)CC[C@H]2[C@H](CC[C@@H]3[C@@H]2CC[C@@]2(C)[C@H]3[C@@H]3C[C@@H]3[C@@H]2C(=O)Cn2nc3ccc(F)cc3n2)C1` [Example 92, 2-(5-Fluoro-2H-benzo[d][1,2,3]triazol-2-yl)-1-((2R,4aS,4bR,6aS,7S,7aS,8aR,8bR,8cR,10aR)-2-hydroxy-2,6a-dimethyloctadecahydrocyclopropa[4,5]cyclopenta[1,2-a]phenanthren-7-yl)ethan-1-one], the half-maximal inhibitory concentration (IC50) amounted to 10.8 nM.
In the case of `C[C@@]1(O)CC[C@H]2[C@H](CC[C@@H]3[C@@H]2CC[C@@]2(C)[C@H]3[C@@H]3C[C@@H]3[C@@H]2C(=O)Cn2nnc3cc(F)ccc32)C1` [Example 93A, 2-(5-Fluoro-1H-benzo[d][1,2,3]triazol-1-yl)-1-((2R,4aS,4bR,6aS,7S,7aS,8aR,8bR,8cR,10aR)-2-hydroxy-2,6a-dimethyloctadecahydrocyclopropa[4,5]cyclopenta[1,2-a]phenanthren-7-yl)ethan-1-one], the half-maximal inhibitory concentration (IC50) turned out to be 3 nM.
Turning to `C[C@@]1(O)CC[C@H]2[C@H](CC[C@@H]3[C@@H]2CC[C@@]2(C)[C@H]3[C@@H]3C[C@@H]3[C@@H]2C(=O)Cn2nnc3ccc(F)cc32)C1` [Example 93B, 2-(6-Fluoro-1H-benzo[d][1,2,3]triazol-1-yl)-1-((2R,4aS,4bR,6aS,7S,7aS,8aR,8bR,8cR,10aR)-2-hydroxy-2,6a-dimethyloctadecahydrocyclopropa[4,5]cyclopenta[1,2-a]phenanthren-7-yl)ethan-1-one], the concentration for half-maximal inhibition (IC50) was 3 nM.
As to `Cc1cnn(CC(=O)[C@H]2[C@H]3C[C@H]3[C@H]3[C@@H]4CC[C@@H]5C[C@](C)(O)CC[C@@H]5[C@H]4CC[C@@]32C)c1` [Example 95, 1-((2R,4aS,4bR,6aS,7S,7aS,8aR,8bR,8cR,10aR)-2-Hydroxy-2,6a-dimethyloctadecahydrocyclopropa[4,5]cyclopenta[1,2-a]phenanthren-7-yl)-2-(4-methyl-1H-pyrazol-1-yl)ethan-1-one], the IC50 came to 34.1 nM.
`C[C@@]1(O)CC[C@H]2[C@H](CC[C@@H]3[C@@H]2CC[C@@]2(C)[C@H]3[C@@H]3C[C@@H]3[C@@H]2C(=O)CNc2ccc(F)cc2)C1` [Example 97, 2-((4-Fluorophenyl)amino)-1-((2R,4aS,4bR,6aS,7S,7aS,8aR,8bR,8cR,10aR)-2-hydroxy-2,6a-dimethyloctadecahydrocyclopropa[4,5]cyclopenta[1,2-a]phenanthren-7-yl)ethan-1-one]: the half-inhibitory concentration (IC50) came to 30.2 nM.
As for `C[C@@]1(O)CC[C@H]2[C@H](CC[C@@H]3[C@@H]2CC[C@@]2(C)[C@H]3[C@@H]3C[C@@H]3[C@@H]2C(=O)Cn2ccnc2)C1` [Example 98, 1-((2R,4aS,4bR,6aS,7S,7aS,8aR,8bR,8cR,10aR)-2-Hydroxy-2,6a-dimethyloctadecahydrocyclopropa[4,5]cyclopenta[1,2-a]phenanthren-7-yl)-2-(1H-imidazol-1-yl)ethan-1-one], the 50% inhibitory concentration (IC50) is 37.8 nM.
Regarding `Cc1nnnn1CC(=O)[C@H]1[C@H]2C[C@H]2[C@H]2[C@@H]3CC[C@@H]4C[C@](C)(O)CC[C@@H]4[C@H]3CC[C@@]21C` [Example 101, 1-((2R,4aS,4bR,6aS,7S,7aS,8aR,8bR,8cR,10aR)-2-Hydroxy-2,6a-dimethyloctadecahydrocyclopropa[4,5]cyclopenta[1,2-a]phenanthren-7-yl)-2-(5-methyl-1H-tetrazol-1-yl)ethan-1-one], the half-inhibitory concentration (IC50) was 11.4 nM.
Regarding `C[C@@]1(O)CC[C@H]2[C@H](CC[C@@H]3[C@@H]2CC[C@@]2(C)[C@H]3[C@@H]3C[C@@H]3[C@@H]2C(=O)Cn2cc(C(=O)N3CCC3)cn2)C1` [Example 102, 2-(4-(Azetidine-1-carbonyl)-1H-pyrazol-1-yl)-1-((2R,4aS,4bR,6aS,7S,7aS,8aR,8bR,8c R,10aR)-2-hydroxy-2,6a-dimethyloctadecahydrocyclopropa[4,5]cyclopenta[1,2-a]phenanthren-7-yl)ethan-1-one], the 50% inhibitory concentration (IC50) was found to be 65 nM.
Consider `CSc1cnn(CC(=O)[C@H]2[C@H]3C[C@H]3[C@H]3[C@@H]4CC[C@@H]5C[C@](C)(O)CC[C@@H]5[C@H]4CC[C@@]32C)c1` [Example 122, 1-((2R,4aS,4bR,6aS,7S,7aS,8aR,8bR,8cR,10aR)-2-Hydroxy-2,6a-dimethyloctadecahydrocyclopropa[4,5]cyclopenta[1,2-a]phenanthren-7-yl)-2-(4-(methylthio)-1H-pyrazol-1-yl)ethan-1-one], for which the IC50 was determined as 46 nM.
The same measure for `C[C@@]1(O)CC[C@H]2[C@H](CC[C@@H]3[C@@H]2CC[C@@]2(C)[C@H]3[C@@H]3C[C@@H]3[C@@H]2C(=O)COc2ccc(C#N)cc2F)C1` [Example 125, 3-Fluoro-4-(2-((2R,4aS,4bR,6aS,7S,7aS,8aR,8bR,8cR,10aR)-2-hydroxy-2,6a-dimethyloctadecahydrocyclopropa[4,5]cyclopenta[1,2-a]phenanthren-7-yl)-2-oxoethoxy)benzonitrile]: 30.7 nM.
Consider `C[C@@]1(O)CC[C@H]2[C@H](CC[C@@H]3[C@@H]2CC[C@@]2(C)[C@H]3[C@@H]3C[C@@H]3[C@@H]2C(=O)COc2ccc(F)cc2C#N)C1` [Example 126, 5-Fluoro-2-(2-((2R,4aS,4bR,6aS,7S,7aS,8aR,8bR,8cR,10aR)-2-hydroxy-2,6a-dimethyloctadecahydrocyclopropa[4,5]cyclopenta[1,2-a]phenanthren-7-yl)-2-oxoethoxy)benzonitrile], for which the IC50 turned out to be 4.9 nM.

The values above are taken from US12139508B2, “Steroid derivative regulators, method for preparing the same, and uses thereof” (JIANGSU HANSOH PHARMACEUTICAL GROUP CO., LTD., priority 2018, dated 2024).
